Read-outs that look alike come from different tables or passages of the source. Each block holds one molecule with its values, some of them ahead of it.
Tests used:
hNav1.4 V1293I = target: T1, hNav1.4 V1293I (Homo sapiens, UniProt P35499, V1293I); assay: Whole-cell patch clamp sodium current inhibition in transfected HEK293T cells, V1293I mutant; type: cell-based
T1 construct: expressed in transfected cells; host or cells: HEK293T
Description: p.V1293I: the V1293I mutation is associated to various phenotypes, from sodium channel myotonia to paramyotonia congenita+hyperkalemic periodic paralysis (Koch et al., 1995).
(§1) Human skeletal muscle subtype of voltage-gated sodium channels (hNav1.4), either wild-type or myotonic mutants, were transiently transfected in HEK293T cells with the calcium-phosphate co-precipitation method. Whole-cell sodium currents (INa) were recorded at room temperature (20-22° C.) using Axon conventional patch-clamp hardware (Molecular Devices, USA). Voltage clamp protocols and data acquisition were performed with pCLAMP software (Axon Instruments). […]
(§2) Inhibition of hNav1.4 channels by safinamide was evaluated by measuring the reduction of INa elicited from a holding potential (HP) of −120 to −30 mV at frequency stimulations of 0.1 and 10 Hz. The concentration-response curves of safinamide were produced by obtaining the peak current amplitude measured in the presence of drug (IDRUG), normalized to the peak current amplitude measured in the same cell before drug application (ICTRL), as a function of drug concentration [(DRUG)]. […] The IC50 values were determined at resting membrane potential (tonic block: −120 mV at 0.1 Hz) and after repetitive depolarizing pulses to −20 mV at 10 Hz (use and frequency-dependent block). […]

[1] = tested on: sarcolemma excitability in single myofibers of isolated Extensor Digitorum Longus (EDL) muscles; assay: In vitro antimyotonic activity in rat EDL skeletal muscle fibers, 9-AC-induced myotonia-like condition, two-microelectrode current clamp; type: cell-based; details: for reduction of N spikes (maximum number of spikes): vs 9-AC alone
Description: The antimyotonic activity of safinamide was assessed by recording the sarcolemma excitability in single myofibers of isolated Extensor Digitorum Longus (EDL) muscles using two-microelectrode current-clamp technique. The in-vitro model of myotonia congenita was obtained by incubating rat EDL muscles with 9-anthracene carboxylic acid (9-AC) (Conte Camerino et al., Muscle Nerve. 1989; 12(11):898-904. Altamura et al., Br J Pharmacol. 2018; 175(10):1770-1780). The increase of sarcolemma excitability caused by 9-AC through the blockade of skeletal muscle ClC-1 chloride channels mimicked the abnormal action potential firing observed in patients affected by myotonia congenita.
EDL muscles were dissected out from male Wistar rats under deep anaesthesia (80 mg/kg ip ketamine and 10 mg/kg ip xylazine). Muscles were placed in a 25 ml muscle bath maintained at 30° C. and perfused with saline (gassed with 95% O2 and 5% CO2; pH=7.2-7.3). By means of standard two-intracellular-microelectrode technique, the resting membrane potential and excitability characteristics (number of spikes) of muscle fibres were measured in current clamp mode. The excitability characteristics of the sampled fibres were determined by recording the intracellular membrane potential response to a square-wave constant (100 ms) current pulse. In each fibre, the membrane potential was set by a steady holding current to −80 mV before passing the depolarizing pulses. By increasing the amplitude of the pulse we were able to elicit the first single action potential and by further increasing current intensity in the same fibre, the maximum number of elicitable spikes (N spikes) was measured (Pierno et al., Br J Pharmacol. 2006; 149(7):909-19).
Unwarranted muscle contractions were hampered with dantrolene sodium (2 mg/1). Cell excitability parameters (N spikes) was measured before (control) and after 50 μM 9-AC alone and concomitant application of safinamide at six different concentrations (0.1 to 30 μM). In these experimental conditions, safinamide methanesulfonate was used and dissolved as stock solution (10 mM) in distilled water, then it was diluted to the final concentrations in the muscle bath solution. One animal was used to test two concentrations of safinamide: one concentration in each EDL muscle.

[2] = tested on: rat model of myotonia congenita; assay: In vivo antimyotonic activity in 9-AC-induced rat model of myotonia congenita, time of righting reflex (TRR)
Description: Myotonia was induced in rats by intraperitoneal injection of 9-AC, which is a known blocker of skeletal muscle ClC-1 chloride channels (Conte Camerino et al., Muscle Nerve. 1989; 12(11):898-904. Altamura et al., Br J Pharmacol. 2018; 175(10):1770-1780). Male Wistar rats (250-300 g) were used. Experiments were performed in accordance with the Guide for the Care and Use of Laboratory Animals and with Italian Health Department approval n. 194/2018-PR. Experimenters were blinded to the treatments. In this animal model, 9-AC mimics in vivo myotonia congenita, a human disease due to loss-of-function mutations in CLCN1 gene encoding ClC-1 channels. […] Nevertheless, the animals remained fully conscious and alert. Breathing was normal. When hearing an unexpected noise, the animals reacted by a jump on site but had great difficulties to move away due to muscle stiffness. Myotonia was evaluated by measuring the time of righting reflex (TRR, the time needed for the rat placed in supine position to turn back on its four paws). In rats, before 9-AC injections the TRR was less than 0.5 s. […] Then the TRR decreased gradually over time, being close to 1 s, 3 h after 9-AC. An anti-myotonic drug is expected to counteract the 9-AC-induced TRR prolongation. The TRR was evaluated about 10 minutes before 9-AC (Time 0) and 10, 37, 67, 127, and 187 min after 9-AC (30 mg/kg i.p.). The TRR measured at each time point was the mean of 7 measurements spaced by 1 min (to limit warm-up effect). Safinamide methanesulfonate (10 and 30 mg/kg as free base) or vehicle were administrated by oral gavage to the rats 17 min after 9-AC injection. 9-AC and safinamide methanesulfonate were dissolved in bicarbonate and 0.9% NaCl solution, respectively. To allow comparison between rats, the TRR measured at each time point was normalized as a function of TRR measured 10 min after 9AC injection in the same rat. Then average data were calculated for each dosage as the mean±S.E.M. Statistical analysis was performed using one-way analysis of variance (ANOVA) followed by ad-hoc Bonferroni's t test. […] In this in vivo model the dose-response curve of safinamide methanesulfonate at increasing doses (0.3, 1, 3, 10 and 30 mg/kg as free base) was also studied. To allow comparison between rats, the TRR measured at each time point was normalized as a function of TRR measured 10 min after 9AC injection in the same rat. Then average data were calculated for each drug/dosage as the mean±S.E.M. Statistical analysis will be performed using one-way analysis of variance (ANOVA) followed by ad-hoc Bonferroni's t test.

hNav1.4 I1310N = hNav1.4 I1310N (Homo sapiens, UniProt P35499, I1310N); assay: Whole-cell patch clamp sodium current inhibition in transfected HEK293T cells, I1310N mutant; type: cell-based
Description: p.I1310N: this mutation has been found in 5 related of a French kindred, and is associated to sodium channel myotonia (Farinato et al., 2019).
as §1, with “Instruments). Bath solution contained (mM) 150 NaCl, 4 KCl, 2 CaCl2, 1 MgCl2, 5 Na-HEPES, and 5 glucose (pH 7.4).” for “Instruments).”
as §2

hNav1.4 P1158L = target: T2, hNav1.4 P1158L (Homo sapiens, UniProt P35499, P1158L); assay: Whole-cell patch clamp sodium current inhibition in transfected HEK293T cells, P1158L mutant; type: cell-based
T2 construct: expressed in transfected cells; host or cells: HEK293T
Description: as §1, with “Instruments). Bath solution contained (mM) 150 NaCl, 4 KCl, 2 CaCl2, 1 MgCl2, 5 Na-HEPES, and 5 glucose (pH 7.4). The pipette solution contained (in mM) 120 CsF, 10 CsCl, 10 NaCl, 5 EGTA, and 5 Cs-HEPES (pH 7.2).” for “Instruments).”
as §2

hNav1.4 F1298C = target: T3, hNav1.4 F1298C (Homo sapiens, UniProt P35499, F1298C); assay: Whole-cell patch clamp sodium current inhibition in transfected HEK293T cells, F1298C mutant; type: cell-based
T3 construct: expressed in transfected cells; host or cells: HEK293T
Source text: p.F1298C: this mutation was found in a person, presenting with stiffness in facial, upper and lower limb muscles, mainly after contraction (Farinato et al., 2019). Symptoms worsened with cold and myotonia was reported as painful. The patient noticed a mild improvement of myotonia with exercise.
as §1, with “USA).” for “USA). Voltage clamp protocols and data acquisition were performed with pCLAMP software (Axon Instruments).”
as §2

Wild Type hNav1.4 = target: T4, Wild Type hNav1.4 (Homo sapiens, UniProt P35499); assay: Whole-cell patch clamp sodium current inhibition in transfected HEK293T cells, wild type; type: cell-based
T4 construct: expressed in transfected cells; host or cells: HEK293T
Description: as §1, with “Instruments). Bath solution contained (mM) 150 NaCl, 4 KCl, 2 CaCl2, 1 MgCl2, 5 Na-HEPES, and 5 glucose (pH 7.4). The pipette solution contained (in mM) 120 CsF, 10 CsCl, 10 NaCl, 5 EGTA, and 5 Cs-HEPES (pH 7.2).” for “Instruments).”
as §2

hNav1.4 point mutations = assay: Potency in cells transfected with hNav1.4 point mutations compared to wild type; type: cell-based, human
Description: The effect of safinamide was evaluated on some hNav1.4 point mutations located in the inactivation site. Human skeletal muscle subtype of voltage-gated sodium channels (hNav1.4), either wild-type or myotonic mutants, were transiently transfected in HEK293T cells with the calcium-phosphate co-precipitation method. Whole-cell sodium currents (INa) were recorded at room temperature (20-22° C.) using Axon conventional patch-clamp hardware (Molecular Devices, USA). Voltage clamp protocols and data acquisition were performed with pCLAMP software (Axon Instruments). Bath solution contained (mM) 150 NaCl, 4 KCl, 2 CaCl2, 1 MgCl2, 5 Na-HEPES, and 5 glucose (pH 7.4). The pipette solution contained (in mM) 120 CsF, 10 CsCl, 10 NaCl, 5 EGTA, and 5 Cs-HEPES (pH 7.2). Patch pipettes made with Corning 7052 glass (King glass, USA) had resistance ranging from 1 to 3 MΩ. […] The concentration-response curves of safinamide were produced by obtaining the peak current amplitude measured in the presence of drug (IDRUG), normalized to the peak current amplitude measured in the same cell before drug application (ICTRL), as a function of drug concentration [(DRUG)]. […] The IC50 values were determined at resting membrane potential (tonic block: -120 mV at 0.1 Hz) and after repetitive depolarizing pulses to -20 mV at 10 Hz (use and frequency-dependent block). […]

[3] = HP -120 mV, 0.1 Hz, read-out: IC50 ± SE Tonic block at 0.1 Hz
[4] = repetitive depolarizing pulses, 10 Hz, read-out: IC50 ± SE Use and frequency-dependent block at 10 Hz

Sequence of hNav1.4 I1310N (P35499 whole entry I1310N): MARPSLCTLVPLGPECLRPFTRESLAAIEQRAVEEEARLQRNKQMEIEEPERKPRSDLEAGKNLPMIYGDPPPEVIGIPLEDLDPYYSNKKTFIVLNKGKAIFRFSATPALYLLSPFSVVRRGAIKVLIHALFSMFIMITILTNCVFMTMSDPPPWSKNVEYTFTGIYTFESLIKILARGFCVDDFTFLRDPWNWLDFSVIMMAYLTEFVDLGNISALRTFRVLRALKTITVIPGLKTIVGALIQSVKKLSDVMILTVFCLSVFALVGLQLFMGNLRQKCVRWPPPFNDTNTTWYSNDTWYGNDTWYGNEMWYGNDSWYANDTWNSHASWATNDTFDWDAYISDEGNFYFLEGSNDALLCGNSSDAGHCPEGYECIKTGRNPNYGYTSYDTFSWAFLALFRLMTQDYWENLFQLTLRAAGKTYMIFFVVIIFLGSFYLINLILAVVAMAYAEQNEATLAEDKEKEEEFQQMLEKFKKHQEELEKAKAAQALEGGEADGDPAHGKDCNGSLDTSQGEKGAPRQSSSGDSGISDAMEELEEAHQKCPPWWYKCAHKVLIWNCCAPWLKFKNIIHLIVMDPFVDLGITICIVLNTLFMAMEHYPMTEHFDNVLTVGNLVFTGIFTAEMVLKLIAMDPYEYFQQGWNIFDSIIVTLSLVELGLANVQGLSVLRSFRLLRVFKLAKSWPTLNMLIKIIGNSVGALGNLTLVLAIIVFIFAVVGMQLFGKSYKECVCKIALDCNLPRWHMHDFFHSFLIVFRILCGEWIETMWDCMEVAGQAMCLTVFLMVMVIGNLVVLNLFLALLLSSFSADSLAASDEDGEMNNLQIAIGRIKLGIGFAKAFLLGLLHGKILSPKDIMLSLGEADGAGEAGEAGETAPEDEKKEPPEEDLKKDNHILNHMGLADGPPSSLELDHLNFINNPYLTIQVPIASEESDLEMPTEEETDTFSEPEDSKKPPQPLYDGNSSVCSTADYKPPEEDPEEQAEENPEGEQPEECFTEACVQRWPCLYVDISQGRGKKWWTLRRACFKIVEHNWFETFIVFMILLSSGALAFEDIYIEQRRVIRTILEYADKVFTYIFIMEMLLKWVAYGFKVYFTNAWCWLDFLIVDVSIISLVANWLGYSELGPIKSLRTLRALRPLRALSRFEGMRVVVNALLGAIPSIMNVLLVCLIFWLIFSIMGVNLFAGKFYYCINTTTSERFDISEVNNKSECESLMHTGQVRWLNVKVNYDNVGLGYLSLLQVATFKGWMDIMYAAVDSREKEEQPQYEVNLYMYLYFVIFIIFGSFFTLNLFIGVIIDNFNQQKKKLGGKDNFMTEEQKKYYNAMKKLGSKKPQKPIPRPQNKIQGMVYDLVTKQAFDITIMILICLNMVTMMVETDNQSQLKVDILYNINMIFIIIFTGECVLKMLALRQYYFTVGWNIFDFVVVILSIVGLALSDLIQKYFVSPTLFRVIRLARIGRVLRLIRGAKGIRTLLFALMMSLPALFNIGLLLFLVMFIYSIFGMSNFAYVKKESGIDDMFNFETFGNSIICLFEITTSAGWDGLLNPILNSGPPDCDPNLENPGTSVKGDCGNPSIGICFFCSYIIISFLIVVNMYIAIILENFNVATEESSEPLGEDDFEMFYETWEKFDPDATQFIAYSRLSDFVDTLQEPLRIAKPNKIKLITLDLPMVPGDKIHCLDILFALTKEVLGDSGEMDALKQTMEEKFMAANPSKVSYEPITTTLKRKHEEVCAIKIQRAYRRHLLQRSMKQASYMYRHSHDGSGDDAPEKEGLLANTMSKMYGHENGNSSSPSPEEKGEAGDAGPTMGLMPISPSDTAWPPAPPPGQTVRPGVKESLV
T3 sequence (P35499 whole entry F1298C): as the sequence (P35499 whole entry I1310N) above, with F1298C, N1310I counted along it
T4 sequence (P35499 whole entry): as the sequence (P35499 whole entry I1310N) above, with N1310I counted along it
T1 sequence (P35499 whole entry V1293I): as the sequence (P35499 whole entry I1310N) above, with V1293I, N1310I counted along it
T2 sequence (P35499 whole entry P1158L): as the sequence (P35499 whole entry I1310N) above, with P1158L, N1310I counted along it

IC50 (hNav1.4 V1293I; [3]): 171 ± 19 µM | IC50 (hNav1.4 V1293I; [4]): 47 ± 5 µM | IC50 ([1]; Rattus norvegicus, fit of concentration-response curve, ±SE of the fit, 50 μM 9-AC, read-out: IC50 (concentration able to reduce by 50% the 9-AC effect)): 13.4 ± 2.4 µM | IC50 (hNav1.4 I1310N; [3]): 170 ± 26 µM | IC50 (hNav1.4 I1310N; [4]): 46 ± 7 µM | IC50 (hNav1.4 P1158L; [3]): 148 ± 13 µM | IC50 (hNav1.4 P1158L; [4]): 34 ± 3 µM | IC50 (hNav1.4 F1298C; [3]): 173 ± 12 µM | IC50 (hNav1.4 F1298C; [4]): 83 ± 2 µM | IC50 (Wild Type hNav1.4; [3]): 160 ± 18 µM | IC50 (Wild Type hNav1.4; [4]): 33 ± 4 µM
Compound: C[C@H](NCc1ccc(OCc2cccc(F)c2)cc1)C(N)=O [safinamide, (2S)-2-[[4-[(3-fluorophenyl)methoxy]phenyl]methylamino]propanamide]
reduction of N spikes (maximum number of spikes) ([1]; safinamide 1 μM with 50 μM 9-AC): 22±6% | reduction of N spikes (maximum number of spikes) ([1]; safinamide 5 μM with 50 μM 9-AC): 35±5% | reduction of N spikes (maximum number of spikes) ([1]; safinamide 10 μM with 50 μM 9-AC): 42±5% | reduction of N spikes (maximum number of spikes) ([1]; safinamide 30 μM with 50 μM 9-AC): 60±6% | reversibility of antimyotonic effect upon wash-out ([1]; wash-out, 9-AC 50 μM): reversible | reduction of TRR ([2]; 37 min after 9-AC, 3, 10 and 30 mg/kg oral): significant | maximal effect on TRR prolongation ([2]; 67 min, dose of 10-30 mg/kg oral): 66% | TRR inhibition ([2]; 67 min after 9-AC (peak effect), also with 1 mg/kg oral): significant | TRR inhibition ([2]; 127 min after 9-AC, only 10 and 30 mg/kg oral): significant inhibition | ED50 ([2]; Rattus norvegicus, 67 min, dose-response curve at 67 min, oral, read-out: ED50 (effective dose in inhibiting by 50% TRR prolongation)): 1.2 mg/kg | effect on 9-AC-induced TRR prolongation ([2]; at peak effect (37 and 67 min after 9-AC), oral gavage): dose-dependently and significantly counteracted | duration of effect on TRR prolongation ([2]; oral gavage, 17 min after 9-AC): ≤ 120 min

Compound: O=C(O)c1c2ccccc2cc2ccccc12 [9-AC, 9-anthracene carboxylic acid]
increase of N spikes ([1]; 50 μM 9-AC alone vs control): 60% | time of righting reflex (TRR) ([2]; 10 min after 9-AC injection): about 2 s | time of righting reflex (TRR) ([2]; 30 min after 9-AC injection): about 4 s | time of righting reflex (TRR) ([2]; 3 h after 9-AC injection): ~1 s

Compound: Cc1cccc(C)c1OCC(C)N (centres unmarked) [mexiletine]
potency in hNav1.4 point mutations transfected cells (hNav1.4 point mutations): significantly decreases | potency relative to safinamide in the same test (fold less potent) ([2]; TRR, 9-AC rat model): about 6 fold

Source: patent US11707441B2, “Safinamide for treating myotonia” (Zambon S.P.A., priority 2018, dated 2023)
